Measured values published in patent publication US11136409B2, “Compositions and methods for identification, assessment, prevention, and treatment of AML using USP10 biomarkers and modulators” (Dana-Farber Cancer Institute, Inc., priority 2016, dated 2021).
Like-named read-outs stand apart in the source and are kept apart here.

Key:
[1] = tested on: primary tumor cells from FLT3-ITD positive AML patients and FLT3 mutant primagrafts; assay: Survival of primary AML patient cells and FLT3 mutant primagrafts; type: cell-based, human; conditions: approximately 72 hrs of treatment
Excerpt: The trypan blue exclusion assay has been previously described in Weisberg et al. (2002) Cancer Cell 1:433-443 and was used for quantification of cells prior to seeding for CellTiter-Glo® assays. The CellTiter-Glo® assay (Promega, Madison, Wis.) was used for proliferation studies and carried out according to manufacturer instructions. Cell viability is reported as percentage of control (untreated) cells, and error bars represent the standard error of the mean for each data point.
Mononuclear cells were isolated from samples from AML patients identified as harboring mutant FLT3. Cells were tested in liquid culture (DMEM supplemented with 20% FBS) in the presence of different concentrations of single and combined agents. All blood and bone marrow samples from AML patients were obtained under approval of the Dana Farber Cancer Institute Institutional Review Board.

Ba/F3-FLT3-ITD cells [2] = assay: Proliferation of Ba/F3-FLT3-ITD cells; type: cell-based, murine; conditions: concentration up to 20 μM; approximately 72 hours
Excerpt: (§1) Nomo-1, P31-FUJ, and NB4 were obtained from Dr. Gary Gilliland. MV4, 11 cells were obtained from Dr. Anthony Letai. Hel, K562, THP, U937, TF-1 and K052 cells were purchased from the American Type Culture Collection (ATCC) (Manassas, Va., USA). […] Cell lines were submitted for cell line authentication and were authenticated within 6 months of manuscript preparation through cell line short tandem repeat (STR) profiling (DDC Medical, Fairfield, Ohio and Molecular Diagnostics Laboratory, Dana Farber Cancer Institute). […] PBMCs were generously provided by Dr. Steven Treon and Dr. Guang Yang.
(§2) The CellTiter-Glo® assay (Promega, Madison, Wis.) was used for proliferation studies and carried out according to manufacturer instructions. Cell viability is reported as percentage of control (untreated) cells, and error bars represent the standard error of the mean for each data point.

Ba/F3-FLT3-ITD cells [3] = assay: Immunoblot of FLT3 / Beclin-1 in Ba/F3-FLT3-ITD cells; type: cell-based, murine; conditions: concentration up to 20 μM
Excerpt: (§3) The following antibodies were purchased from Cell Signaling Technology (Danvers, Mass.): total AKT (rabbit, #9272) and total p44/42 MAPK (Erk1/2) (3A7) (mouse, #9107) were used at 1:1000 dilution. Anti-GAPDH (D16H-11) XP (R) (rabbit mAb, #5174) was used at 1:1000 dilution. Beclin-1 (rabbit, #3738) was used at 1:1000. USP10 (D7A5) (rabbit, #8501) was used at 1:1000 dilution. P53 (rabbit, #9282) was used at 1:1000 dilution. β-tubulin (rabbit, #2146s) was used 1:1000.
(§4) FLT3/Flk-2 (C-20) (sc-479) and Ub (P4D1) (mouse, sc-8017) were purchased from Santa Cruz Biotechnology, Inc. (Dallas, Tex.) and used at 1:1000 dilution for immunoblotting. Anti-pTyr (mouse, clone 4G10) was purchased from Upstate Biotechnology (Lake Placid, N.Y.) and was used at 1:1000 dilution. Anti-HAUSP/USP7 antibody (rabbit, ab4080) and anti-ubiquitin antibody (rabbit, ab7780) were purchased from Abcam (Cambridge, Mass.) and used at 1:1000 dilution.
(§5) Protein lysate preparation, immunoblotting, and immunoprecipitation were carried out as previously described in Weisberg et al. (2002) Cancer Cell 1:433-443.

USP10 = USP10 target engagement in cells, labeling with HA-Ub-VS; type: cell-based; conditions: lysates from live treated cells
Procedure: Cells were harvested, washed with PBS, and lysed in 1% NP-40, 10% glycerol, 2% sodium orthovanadate, and HALT protease inhibitor cocktail (ThermoFisher). Lysate was diluted to 50 ug in 30 uL lysis buffer with 1% DTT and incubated on ice for 15 minutes. 0.25 ug HA-Ub-VS was added, and the sample was gently rocked at room temperature for 30 minutes, then denatured with LDS sample buffer.

[4] = biological target: T1, human USP10 (residues 376-798) (Homo sapiens, UniProt Q14694); assay: In vitro USP10 activity assay (Ubiquitin-AMC); type: biochemical; conditions: ubiquitin-AMC as substrate; purified enzyme; read-out: USP10 biochemical IC50
T1 construct: A construct of human USP10 covering residues 376-798 in the pET28a vector; His-tag (cleaved yes); made in house; host or cells: E. coli BL21 (DE3)
Procedure: Protein expression and purification. A construct of human USP10 covering residues 376-798 in the pET28a vector was over-expressed in E. coli BL21 (DE3) in TB medium in the presence of […] of kanamycin. Cells were grown at 37° C. to an OD of 0.8, cooled to 17° C., induced with 500 μM isopropyl-1-thio-D-galactopyranoside, incubated overnight at 17° C., collected by centrifugation, and stored at −80° C. Cell pellets were sonicated in buffer A (50 mM HEPES (pH 7.5), 300 mM NaCl, 10% glycerol, 10 mM Imidazole, and 3 mM BME) and the resulting lysate was centrifuged at 30,000×g for 30 min. Ni-NTA beads (Qiagen) were mixed with lysate supernatant for 30 min and washed with buffer A. Beads were transferred to an FPLC-compatible column and the bound protein was washed with 15% buffer B (50 mM HEPES (pH 7.5), 300 mM NaCl, 10% glycerol, 300 mM Imidazole, and 3 mM BME) and eluted with 100% buffer B. Thrombin was added to the eluted protein and incubated at 4° C. overnight. The sample was then passed through a HiPrep 26/10 desalting column (GE Healthcare) pre-equilibrated with buffer A without imidazole, and the eluted protein was subjected to a second Ni-NTA step to remove His-tag and Thrombin. The eluent was concentrated and passed through a Superdex® 200 10/300GL column (GE Healthcare) in a buffer containing 20 mM HEPES (pH 7.5), 150 mM NaCl, and 1 mM DTT. Fractions were pooled, concentrated to 20 mg/ml, and frozen at −80° C.
In vitro USP10 activity assay. Recombinant USP10, residues 376-798, was tested for its activity in a Ubiquitin-AMC assay in presence or absence of inhibitors. For this assay, 10 nM USP10 were pre-incubated with different concentrations of inhibitors or DMSO as a control in 50 mM HEPES pH7.6, 0.5 mM EDTA, 11 uM ovalbumin, and 5 mM DTT. The reaction was incubated for 6 hours at room temperature prior to the addition of 2 uM Ubiquitin-AMC (Boston Biochem) substrate. The initial rate of the reaction was measured by collecting fluorescence data at one minute intervals over 30-minute period using a CLARIOstar® fluorescence plate reader at excitation and emission wavelength of 345 and 445 nm, respectively. The calculated initial rate values were plotted against inhibitor concentrations to determine IC50 values.

MOLM14 cells = assay: Immunoblot of FLT3, Beclin-1, AKT, ERK1/ERK2 in MOLM14 cells; type: cell-based, human; conditions: approximately 23 hours of treatment
Excerpt: as §3, §4, §5

[5] = tested on: AML primagraft (D835Y+, FLT3-ITD+) cells; assay: Treatment of mutant FLT3-expressing AML primagraft cells ex vivo; type: cell-based, human; conditions: Homo sapiens; 24 hr assay; read-out: IC50 (+/−S.D.) AML primagraft (D835Y+, FLT3-ITD+)
Procedure: All animal studies were performed according to protocols approved by the Dana-Farber Cancer Institute's Institutional Animal Care and Use Committee. […] Mice were sacrificed on day 21 of treatment. Bone marrow was flushed from mouse femurs, and spleens and livers were dissected and preserved first in formalin, followed 24 hours later by preservation in 70% ethanol. […] All AML primagraft samples used in the studies described herein were obtained through the Public Repository of Xenografts (proxe.org).
as §2

PBMCs = assay: Treatment of PBMCs from healthy donors with USP10-targeting inhibitors; type: cell-based, human; conditions: Homo sapiens, 24 hr assay
Excerpt: as §1, §2

T1 sequence (Q14694 376-798): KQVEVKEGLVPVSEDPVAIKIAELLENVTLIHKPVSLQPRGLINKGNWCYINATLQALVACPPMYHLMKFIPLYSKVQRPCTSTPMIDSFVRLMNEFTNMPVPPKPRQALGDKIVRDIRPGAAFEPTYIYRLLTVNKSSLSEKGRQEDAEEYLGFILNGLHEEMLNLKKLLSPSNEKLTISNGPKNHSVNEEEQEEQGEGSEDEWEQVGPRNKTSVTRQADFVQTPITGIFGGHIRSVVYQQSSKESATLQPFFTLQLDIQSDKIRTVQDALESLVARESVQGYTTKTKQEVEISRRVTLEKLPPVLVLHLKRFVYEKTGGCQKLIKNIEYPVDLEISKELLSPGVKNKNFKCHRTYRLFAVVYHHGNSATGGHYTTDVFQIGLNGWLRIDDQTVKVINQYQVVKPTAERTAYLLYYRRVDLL

SMILES | Survival of patient samples and primagrafts [1] | Cell viability (Ba/F3-FLT3-ITD cells [2]) | FLT3 levels (Ba/F3-FLT3-ITD cells [3]) | Inhibitor concentration blocking USP10 labeling by HA-Ub-VS (USP10) | IC50 [4] [µM] | Expression of AKT and ERK1/ERK2 downstream of FLT3 (MOLM14 cells) | IC50 [5] [µM] | IC50 (PBMCs; PBMC#1, read-out: IC50 (+/−S.D.) PBMC#1) [µM] | IC50 (PBMCs; PBMC#2, read-out: IC50 (+/−S.D.) PBMC#2) [µM]
O=C(CCc1ccccc1)N1CCC(O)(Cn2cnc3cc(Cl)ccc3c2=O)CC1 [Compound 2] | little to no effect | little impact on cell viability | did not lead to reduced FLT3 levels | – | – | – | – | – | –
CS(=O)(=O)c1ccc(NC(=O)c2cc(C#N)c(Sc3c(Cl)cncc3Cl)s2)cc1 [1247825-37-1, reference compound] | – | – | – | low micromolar range | 36 | unchanged | 2.5 | 14.9 | 16.6
